Measurements: the supplement of paper PMC10307832

Experiments:
Experiment in all cases: relative viability (nuclei count vs DMSO), 5 days (fraction); higher = more cells survive
Ponatinib + Dasatinib = compound: Cc1ccc(C(=O)Nc2ccc(CN3CCN(C)CC3)c(C(F)(F)F)c2)cc1C#Cc1cnc2cccnn12 [Ponatinib] + Cc1nc(Nc2ncc(C(=O)Nc3c(C)cccc3Cl)s2)cc(N2CCN(CCO)CC2)n1 [Dasatinib] (partner 0.075 µM)
How it was run: (§1)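 Lung cancer cell lines were pin-tool dosed in 1536-well plates on the day after seeding, with either a lone drug or a fixed anchor-drug dose plus five library-drug doses (not always all listed) in √10 steps. Nuclei were counted on 4× images after 5 days. Relative viability is the ratio of treated-well to vehicle-well nuclei counts, with each value a median of duplicate plates.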

Pazopanib + Trametinib = compound: Cc1ccc(Nc2nccc(N(C)c3ccc4c(C)n(C)nc4c3)n2)cc1S(N)(=O)=O [Pazopanib] + CC(=O)Nc1cccc(-n2c(=O)n(C3CC3)c(=O)c3c(Nc4ccc(I)cc4F)n(C)c(=O)c(C)c32)c1 [Trametinib] (partner 0.02 µM)
How it was run: as §1

Pazopanib + Foretinib = compound: Cc1ccc(Nc2nccc(N(C)c3ccc4c(C)n(C)nc4c3)n2)cc1S(N)(=O)=O [Pazopanib] + COc1cc2c(Oc3ccc(NC(=O)C4(C(=O)Nc5ccc(F)cc5)CC4)cc3F)ccnc2cc1OCCCN1CCOCC1 [Foretinib] (partner 0.25 µM)
How it was run: as §1

Pazopanib + Pictilisib = compound: Cc1ccc(Nc2nccc(N(C)c3ccc4c(C)n(C)nc4c3)n2)cc1S(N)(=O)=O [Pazopanib] + CS(=O)(=O)N1CCN(Cc2cc3nc(-c4cccc5[nH]ncc45)nc(N4CCOCC4)c3s2)CC1 [Pictilisib] (partner 1 µM)
How it was run: as §1

Cell Line | relative viability (Ponatinib + Dasatinib; first compound 0.002 µM) | relative viability (Ponatinib + Dasatinib; first compound 0.006325 µM) | relative viability (Ponatinib + Dasatinib; first compound 0.06325 µM) | relative viability (Ponatinib + Dasatinib; first compound 0.2 µM) | relative viability (Pazopanib + Trametinib; first compound 0.01 µM) | relative viability (Pazopanib + Trametinib; first compound 0.03162 µM) | relative viability (Pazopanib + Trametinib; first compound 0.1 µM) | relative viability (Pazopanib + Trametinib; first compound 0.3162 µM) | relative viability (Pazopanib + Trametinib; first compound 1 µM) | relative viability (Pazopanib + Foretinib; first compound 0.01 µM) | relative viability (Pazopanib + Foretinib; first compound 0.03162 µM) | relative viability (Pazopanib + Foretinib; first compound 0.1 µM) | relative viability (Pazopanib + Foretinib; first compound 0.3162 µM) | relative viability (Pazopanib + Foretinib; first compound 1 µM) | relative viability (Pazopanib + Pictilisib; first compound 0.01 µM) | relative viability (Pazopanib + Pictilisib; first compound 0.03162 µM) | relative viability (Pazopanib + Pictilisib; first compound 0.1 µM) | relative viability (Pazopanib + Pictilisib; first compound 0.3162 µM) | relative viability (Pazopanib + Pictilisib; first compound 1 µM)
NCI-H1437 | 0.316 | 0.382 | 0.36 | 0.357 | 0.525 | 0.531 | 0.454 | 0.575 | 0.509 | 1.33 | 1.25 | 1.16 | 1.21 | 1.31 | 0.343 | 0.449 | 0.441 | 0.499 | 0.626
COR-L23 | 0.526 | 0.502 | 0.666 | 0.433 | 0.511 | 0.649 | 0.698 | 0.625 | 0.773 | 0.916 | 1.03 | 0.922 | 0.986 | 0.989 | 0.649 | 0.771 | 0.805 | 0.962 | 0.881
ABC-1 | 0.465 | 0.614 | 0.539 | 0.629 |  |  |  |  |  | 0.843 | 1.06 |  | 0.975 | 1.04 | 0.635 | 0.839 | 0.82 | 0.799 | 0.86
NCI-H522 | 0.782 | 0.846 | 0.703 | 0.816 | 0.727 | 0.771 | 0.735 | 0.786 | 0.811 |  |  |  |  |  |  |  |  |  | 
PC-14 | 0.244 | 0.24 | 0.292 | 0.248 | 0.834 | 0.775 | 0.896 | 1.09 | 0.766 | 0.962 | 0.972 | 1.11 | 1.03 | 1 | 0.64 | 0.612 | 0.88 | 0.637 | 0.686
SW 900 | 0.682 | 0.494 | 0.453 | 0.48 | 1.03 | 0.837 |  | 0.974 | 1.03 | 0.843 | 0.886 | 0.941 | 0.876 | 0.97 |  |  |  |  | 
A549 |  |  |  |  |  |  |  |  |  | 0.905 | 1.03 | 1.16 | 0.985 | 0.913 | 0.494 | 0.477 | 0.63 | 0.589 | 0.423
A-427 | 0.696 | 0.784 | 0.721 | 0.481 | 0.7 | 0.882 | 0.679 | 0.71 | 0.753 | 0.971 | 1.21 | 1.15 | 1.02 | 1.05 | 0.612 | 0.705 | 0.692 | 0.746 | 0.782
NCI-H1792 | 0.726 | 0.795 | 0.886 | 0.542 |  | 0.432 | 0.418 | 0.349 | 0.443 |  |  |  |  |  |  | 0.271 | 0.276 | 0.282 | 0.309
LCLC-97TM1 | 0.983 | 0.94 | 0.906 | 0.863 |  | 0.218 | 0.203 | 0.209 | 0.279 | 0.908 | 0.976 | 1.03 | 0.909 | 0.905 |  | 0.196 | 0.195 | 0.201 | 0.179
NCI-H1703 |  |  |  |  |  |  |  |  |  | 0.306 | 0.358 | 0.362 | 0.396 | 0.337 | 0.246 | 0.24 | 0.207 | 0.198 | 0.173
LCLC-103H | 0.386 | 0.573 | 0.532 | 0.394 | 0.589 | 0.725 | 0.68 | 0.646 | 0.723 | 0.651 | 0.897 | 0.734 | 0.819 | 0.894 | 0.531 | 0.575 | 0.635 | 0.764 | 0.588
RERF-LC-KJ | 0.707 | 0.824 | 0.93 | 0.844 | 0.82 | 0.892 | 0.842 | 0.805 | 0.853 | 0.844 | 0.859 | 0.857 | 0.86 | 0.792 | 0.447 | 0.562 | 0.559 | 0.495 | 0.487
BEN | 0.255 | 0.279 | 0.257 | 0.311 | 1.05 | 1.04 | 0.916 | 1.08 | 0.925 |  | 0.656 | 0.517 | 0.804 | 0.696 | 0.514 | 0.621 | 0.515 | 0.567 | 0.488
NCI-H1666 | 0.761 | 0.829 | 0.906 | 0.853 | 0.925 | 0.893 | 0.899 | 0.884 | 1 | 0.998 | 1.01 | 0.995 | 1.02 | 1.1 | 0.369 | 0.307 | 0.379 | 0.421 | 0.426
LC-2-ad | 0.286 | 0.298 | 0.313 | 0.256 | 0.905 | 0.934 | 0.89 | 0.915 | 0.858 | 0.888 | 0.927 | 1.05 | 0.967 | 1.04 | 0.412 | 0.436 | 0.515 | 0.196 | 0.527
Calu-6 |  |  |  |  |  |  |  |  |  | 0.89 | 0.954 | 0.93 | 0.848 | 0.803 | 0.874 | 1.01 | 0.993 | 0.849 | 0.877
NCI-H1648 |  |  |  |  |  |  | 0.452 | 0.454 | 0.427 |  |  |  |  |  |  |  |  |  | 
EBC-1 |  |  |  |  |  |  |  |  |  | 0.095 | 0.104 | 0.0934 | 0.103 | 0.0962 | 0.402 | 0.508 | 0.376 | 0.412 | 0.394
NCI-H1299 |  |  |  |  |  |  |  |  |  | 1.07 | 1.06 | 1.13 | 1.09 | 1.01 | 0.791 | 0.79 | 0.82 | 0.952 | 0.693
NCI-H2342 | 0.285 | 0.309 | 0.296 | 0.296 | 0.778 | 0.918 | 0.821 | 0.754 | 0.674 | 0.981 | 1 | 1.09 | 0.939 | 0.755 |  |  |  |  | 
IA-LM |  |  |  |  |  |  |  |  |  | 1.17 | 1.07 | 1.13 | 1.04 | 1.02 | 0.368 | 0.439 | 0.4 | 0.568 | 0.524
